In US20250250229A1, “ARYLTHIO DERIVATIVES WITH PHARMACOLOGICAL ACTIVITY” (IRIDEA S.R.L., priority 2022, published 2025):

Columns and labels:
[1] = system: chorioallantoic membrane (CAM); assay: In vivo assay on chorioallantoic membrane (CAM), VEGF165-induced neovascularisation; set-up: species or system hen; details: day 14, VEGF165 alone = 100
Method: In Vivo Assays on Chorioallantoic Membrane (CAM)
42 fertilised hens' eggs were disinfected with a 20% ethanol solution and incubated at a temperature of 37-38° C. and a humidity of 40-60% in a rotary egg incubator. The eggs were positioned horizontally and incubated for the next 11 days to promote embryo development.
On day 11, the position of the CAM was identified by candling for 36 eggs, the air chamber was removed, and slits made in the shell in order to position sterile paper filters saturated with the effectors at different concentrations (V=2.5 uL) on the CAM. On day 14, CAMs were photographed with a stereomicroscope (Carl Zeiss Vision GmbH). Quantitative analysis was conducted (count of vessels leading from the filter) by skeletonizing the images and using AngioTool64 0.6a software, and the percentage of neovascularisation at the various concentrations of effectors was determined (Table 2).

[2] = system: rat aorta rings; assay: Ex vivo assay of anti-angiogenic activity on rat aorta rings (VEGF-induced sprouting); assay type: cell-based; details: VEGF 30 ng/mL, compound 100 μM, counted after 6 days' incubation; VEGF alone 17 ± 4
Method: Ex Vivo Assays of Anti-Angiogenic Activity on Rat Aorta Rings
Thoracic aortas obtained from 5- to 10-week-old male rats were cut into rings measuring about 1 mm. The rings were placed on the base of a 24-well plate (positioning the luminal axis parallel to the base of the well), and incubated with a fibrin-polymerising solution. After 5 min, VEGF (30 ng/mL) was added to the wells in an appropriate culture medium in the presence or absence of the compounds according to the invention at the concentration of 100 μM. The medium was changed three times a week as from day 3. The angiogenic response was measured by counting the number of new vessels that sprouted over time (Table 1). The endothelial filaments were counted after 6 days' incubation.

[3] = system: neutrophil and macrophage recruitment; assay: In vivo anti-inflammatory activity test, P. aeruginosa RP73 lung infection, BALF cell analysis; set-up: species or system C57Bl/6N mice; details: 12 mg/kg subcutaneous daily, BALF six days after infection, compared with carrier only
Method: In Vivo Anti-Inflammatory Activity Test Immunocompetent C57Bl/6N male mice (8-10 weeks) were infected with strains of P. aeruginosa RP73 (4-6×10^5 CFU, Colony Forming Units), incorporated in agar microbeads. The microbeads were prepared by following the procedures described in the literature (Bayes H K, Ritchie N, Irvine S, Evans T J. A murine model of early Pseudomonas aeruginosa lung disease with transition to chronic infection. Sci Rep. 2016 Nov. 2; 6:35838. doi: 10.1038/srep35838), and they were administered to the mice by intratracheal injection. Subcutaneous administration of the compounds according to the invention at the concentration of 12 mg/kg, or of the carrier, was conducted on the mice 18 hours before inoculation of the bacterium, and repeated daily for 6 days. The general state of health of the mice was analysed once or twice a day throughout the duration of the experiment. Six days after infection, the mice were euthanised by carbon dioxide inhalation. Bronchoalveolar lavage fluid analysis (BALF) indicated a significant reduction in the number of neutrophils in the treated mice compared with those treated with the carrier only.

[4] = VEGF165 0.1 ug + compound 0.0001 ug on filter
[5] = VEGF165 0.1 ug + compound 0.001 ug on filter
[6] = VEGF165 0.1 ug + compound 0.01 ug on filter
[7] = VEGF165 0.1 ug + compound 0.1 ug on filter
[8] = VEGF165 0.1 ug + compound 1 ug on filter

| Molecule | Vascularisation (%) [1, 4] | Vascularisation (%) [1, 5] | Vascularisation (%) [1, 6] | Vascularisation (%) [1, 7] | Vascularisation (%) [1, 8] | Endothelial filaments (standardised for the number of rings) [2] | Macrophages (%) [3] | Neutrophils (%) [3] | Total cells (%) [3] |
| --- | --- | --- | --- | --- | --- | --- | --- | --- | --- |
| CC(C)(C)c1cc(NC(=O)CCN=C(N)N)c(SCCc2ccccc2)c(NC(=O)CCN=C(N)N)c1 [IRI-N-19001, N,N′-(5-(tert-butyl)-2-(phenethylthio)-1,3-phenylene)bis(3-((diaminomethylene)amino)propanamide)] | 45% | 37% | 33% | 26% | 10% | 1.0 ± 0.4 | −10 ± 3% | −61 ± 5% | −55 ± 12% |
| CC(C)(C)c1cc(NC(=O)CCN=C(N)N)c(SCc2ccc3ccccc3c2)c(NC(=O)CCN=C(N)N)c1 [IRI-N-19004, N,N′-(5-(tert-butyl)-2-((naphthalen-2-ylmethyl)thio)-1,3-phenylene)bis(3-((diaminomethylene)amino)propanamide)] | 38% | 33% | 24% | 19% | 8% | 1.2 ± 0.5 | −5 ± 4% | −58 ± 8% | −56 ± 8% |
| CC(C)(C)c1cc(NC(=O)CCCN=C(N)N)c(SCCc2ccccc2)c(NC(=O)CCCN=C(N)N)c1 [IRI-N-19025, N,N′-(5-(tert-butyl)-2-(phenethylthio)-1,3-phenylene)bis(4-((diaminomethylene)amino)butanamide)] | – | – | – | – | – | 1.9 ± 1.1 | −8 ± 5% | −55 ± 9% | −50 ± 10% |
| N,N′-(2-(benzylthio)-5-(tert-butyl)-1,3-(phenylene)bis(3-((diaminomethylene)amino) propanamide) [IRI-N-19002] | 48% | 42% | 36% | 31% | 13% | 1.4 ± 0.5 | −9 ± 4% | −60 ± 6% | −54 ± 9% |
